Values joined by “and” are separate entries in the source; they are usually repeats but may differ in a detail not shown here. Equal entries are not always repeated.
Legend:
[1] = system: canine strongyloides (Strongyloides stercoralis); assay: Anthelmintic test against canine strongyloides in naturally infected dogs, E.P.G. on 7th day (Test Examples A4, B4, C4, D4); type: in vivo; conditions: dogs, 10 mg/Kg orally once, one value per dog
Experimental: Three dogs infected with canine strongyloides (naturally infected dogs) were employed by grouping them into a group of two and a group of one.
As control, only a gelatin capsule was administered orally to the one dog.
(§1) Before administration and on the 7th day after administration, fecal matter testing was conducted to calculate the E.P.G., and the anthelmintic effect was judged by the changing of the E.P.G. to negative.
(§2) As control, only gelatin capsules were administered orally to the one dog.
as §2

[2] = system: swine Oesophagostomum (Oesophagostomum dentatum); assay: Test of anthelmintic effect against swine Oesophagostomum in naturally infected pigs, E.P.G. on 7th day (Test Examples A8, B8, C8, D8); type: in vivo; conditions: pigs
Experimental: Six pigs infected with swine Oesophagostomum (naturally infected pigs) were employed by grouping them into groups each of two pigs.
(§3) As a control, only gelatin capsules were administered orally to the two pigs.
as §1

[3] = system: stomach worm (Haemonchus controtus); assay: Anthelmintic test against cow stomach worm in naturally infected cows, E.P.G. on 7th day (Test Examples A6, B6, C6, D6); type: in vivo; conditions: cows
Experimental: Three cows infected with stomach worm (naturally infected cows) were employed by grouping them into a group of two and a group of one.
(§4) As control, only gelatin capsules were administered orally to the one cow.
as §1, §4, §4

[4] = system: fowl roundworm (As. galli); assay: Anthelmintic test in chickens artificially infected with fowl roundworm, compound added to feed, E.P.G. and worm count up to 21st day (Test Examples A2, B2, C2, D2); type: in vivo, Ascaridia galli; conditions: Ascaridia galli, po, 504 h, chickens, worm count on 21st day, one value per chicken, read-out: Anthelmintic effect; for inhibition in vivo at 10 ppm: 10 ppm added to feed; for inhibition in vivo at 50 ppm: 50 ppm added to feed
[5] = system: canine filaria; Dirofilaria immitis; assay: Test of anthelmintic effect against canine filaria in naturally infected dogs, subcutaneous injection, microfilaria in blood and adult filaria at autopsy (Test Examples A10, B10, C10, D10); type: in vivo; conditions: dogs
[6] = system: Liver fluke; Fasciola hepatica (F. hepatica); assay: Test of anthelmintic effect against rat infected experimentally with liver fluke (Test Examples A11, B11, C11, D11); type: in vivo; set-up: key to Presence or absence of fluke egg in fecal matter On 21st day after the last administration: +: indicates detection of fluke egg; -: indicates no detection; conditions: rats, 50 mg/Kg x 5 orally, one value per rat; for Condition of fluke body: autopsy, liver, "Denatured" = fluke body is alive but a part of fluke body has changed
Description: Twenty-eight (28) rats were employed in fourteen groups each of two rats, each rat being infected with 5 metacercariae of Liver fluke; Fasciola he^patica (F.. hepatica) and confirmed to have worm eggs on the 75th day after infection according to fecal matter testing.
Judgement of the effect was made by the presence or absence of the worm gees in the fecal matter on the 21st day after the last administration and by examination according to autopsis as to whether the worm bodies were dead or alive in the liver.
The same as that in Test Example All, but eight (8) rats were employed by grouping them into groups each of two rats, each rat being infected with 5 metacercariae of liver fluke and confirmed to have fluke eggs on the 75th day after infection according to fecal matter testing.
The compounds provided for the tests were Compound Nos. Bl, B8 and B19.
The same as that in Test Example All, but six (6) rats were employed by grouping them into groups each of two rats, each rat being infected with 5 metacercariae of Fasciola hepatica and confirmed to have worm eggs on the 75th day after infection according to fecal matter testing.
The compounds provided for the tests were Compound Nos. C2 and C6.
The same as that in Test Example All, but the compounds provided for tests were Compound Nos. D14, D15 and D16.

[7] = system: Diphyllobothrium erinacei; assay: Test of anthelmintic effect against Diphyllobothrium erinacei (tapeworm) in experimentally infected cats (Test Examples A5, B5, C5, D5)
[8] = system: swine roundworm (Ascaris suum); assay: Test of anthelmintic effect in naturally infected pigs, E.P.G. on 7th day: swine roundworm (Test Examples A9, B9, C9, D9); type: in vivo; conditions: for anthelmintic effect: pigs infected with swine roundworm and swine whipworm (statement covers both); for Change of E.P.G. 7th day: pigs, Ascaris suum, one value per pig
Experimental: (§5) Six pigs infected with swine roundworm and swine whipworm (naturally infected pigs) were employed in groups each of two pigs.
as §3
(§6) Before administration and on the 7th day after. administration, fecal matter testing was conducted to calculate the E.P.G., and the anthelmintic effect was judged by the changing of the E.P.G. to negative'.
(§7) 50 mg of each compound was placed in a gelatin capsule per 1 Kg of body weight and administered orally to each of the two pigs. As control, only gelatin capsules were administered orally to two pigs.
(§8) 30 mg of each compound was placed in a gelatin capsule per 1 Kg of body weight and administered orally to each of the two pigs. As control, only gelatin capsules were administered orally to two pigs.

[9] = system: swine whipworm (Trichuris suis); assay: Test of anthelmintic effect in naturally infected pigs, E.P.G. on 7th day: swine whipworm (Test Examples A9, B9, C9, D9); type: in vivo; conditions: pigs, one value per pig
Experimental: as §5, §3, §6, §7, §8

[10] = system: fowl roundworm (Ascaridia galli); assay: Anthelmintic test in chickens artificially infected with fowl roundworm, single oral dose in gelatin capsule, worm bodies counted within 48 hours (Test Examples A1, B1, C1, D1); type: in vivo; conditions: Ascaridia galli, po, 48 h, chickens, one value per chicken (No.1-3), read-out: Anthelmintic effect after 48 hours
How it was run: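 Anthelmintic percentage derived from counts of worms passed within 48 h plus worms left in the intestine after killing at 48 h. Infection confirmed by fecal examination in three-bird groups; compound given orally once in gelatin capsules at 10/20 (A1, B1), 30/50 (C1) or 15/30 (D1) mg/kg.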

[11] = 20 mg/Kg x 3 subcutaneously, autopsy on 10th day after the last administration, one value per dog, 20 mg/kg

Compound: C#CCN(OCC=C)C(C)=O [Compound A3, N-propargyl-N-acetyl-O-allylhydroxylamine]
- Change of E.P.G. Before administration ([1]; baseline, 10 mg/kg): 1,900 E.P.G. and 2,700 E.P.G.
- Change of E.P.G. 7th day [1]: 0 E.P.G.
- Change of E.P.G. Before administration ([2]; 20 mg/Kg orally once, baseline, one value per pig, 20 mg/kg): 1,600 E.P.G. and 1,000 E.P.G.
- Change of E.P.G. 7th day ([2]; 20 mg/Kg orally once, one value per pig): 0 E.P.G.
- anthelmintic effect ([2]; one administration of 20 mg/Kg): marked anthelmintic effect
- Change of E.P.G. Before administration ([3]; 15 mg/Kg orally once, baseline, one value per cow, 15 mg/kg): 1,700 E.P.G. and 1,500 E.P.G.
- Change of E.P.G. 7th day ([3]; 15 mg/Kg orally once, one value per cow): 0 E.P.G.
- anthelmintic effect ([3]; one administration of 15 mg/Kg): marked anthelmintic effect
- inhibition in vivo at 10 ppm [4]: 100%
- inhibition in vivo at 50 ppm [4]: 100%
- inhibition in vivo at 20 mg/kg ([5]; Dirofilaria immitis, sc, 240 h, administration of 20 mg/Kg repeated three times, given as about 50% or more, read-out: anthelmintic effect against adult filaria): ≥ 50%
- Effect on adult filaria: Number of worms killed/Total parasites [5, 11]: 13/18 and 4/ 8
- Effect on adult filaria: Percent of worms killed [5, 11]: 72% and 50%
- Number of microfilaria/20 µl On 10th day after the last administration ([5]; 20 mg/Kg x 3 subcutaneously, earlobe blood, one value per dog): 0 /20 µl
- anthelmintic effect against microfilaria (mf) ([5]; administration of 20 mg/Kg repeated three times): marked anthelmintic effect
- Condition of fluke body [6]: dead
- Presence or absence of fluke egg in fecal matter On 21st day after the last administration [6]: -
- Number of worm bodies remaining in enteron ([7]; cats infected with 5 plerocercoids, 50 mg/Kg x 5 times orally, autopsy ten days after administration, one value per cat): 0
- Worm egg detection on 10th day after administration ([7]; cats, 50 mg/Kg x 5 times orally, one value per cat (Table A7)): -
- anthelmintic effect ([7]; cats, 5 continuous administrations of 50 mg/Kg): marked anthelmintic effects

Compound: C#CCN(OCCCC)C(=O)c1ccccc1 [Compound A10, N-propargyl-N-benzoyl-O-butylhydroxylamine]
- inhibition in vivo at 10 ppm [4]: 80 to 90%
- inhibition in vivo at 50 ppm [4]: 100%
- Condition of fluke body [6]: dead
- Presence or absence of fluke egg in fecal matter On 21st day after the last administration [6]: -
- anthelmintic effect ([8]; one administration of 20 mg/Kg): marked anthelmintic effect
- Change of E.P.G. 7th day ([8]; 20 mg/Kg orally once): 0 E.P.G.
- Change of E.P.G. 7th day ([9]; 20 mg/Kg orally once): 0 E.P.G.

Compound: C=CCN(OC)C(=O)c1ccccc1 [Compound B5, N-allyl-N-benzoyl-O-methylhydroxylamine]
- inhibition in vivo at 20 ppm ([4]; 20 ppm added to feed): 80 to 90%
- inhibition in vivo at 50 ppm [4]: 100%
- anthelmintic effect ([8]; one administration of 50 mg/Kg): marked anthelmintic effect
- Change of E.P.G. 7th day ([8]; 50 mg/Kg orally once): 0 E.P.G.
- inhibition in vivo at 30 mg/kg ([10]; 30 mg/Kg orally in gelatin capsule): 100%
- inhibition in vivo at 50 mg/kg ([10]; 50 mg/Kg orally in gelatin capsule): 100%
- Change of E.P.G. Before administration ([9]; 50 mg/Kg orally once, baseline, 50 mg/kg): 2,100 E.P.G. and 1,300 E.P.G.
- Change of E.P.G. 7th day ([9]; 50 mg/Kg orally once): 0 E.P.G.
